# Test results: article PMC6424980, “Distinct G protein-coupled receptor phosphorylation motifs modulate arrestin affinity and activation and global conformation” (Nature Communications, 2019)
# Non-standard residues stand in square brackets, D forms with d. No end group written: not given here. pT = C[C@@H](OP(=O)(O)O)[C@H](N)C(=O)O; pS = N[C@@H](COP(=O)(O)O)C(=O)O
# B1: tri-phosphorylated peptide 3Pd of the bovine rhodopsin C-terminus (peptide)
# chain: C(fluorescein‑5‑maleimide)DDEASTTVSK[pT]ET[pS]QVAPA
# modifications: also: third phosphorylation site not given here
# How the values were obtained:
# [1] = test system: arrestin-1; assay: [15N,1H]TROSY NMR titration of arrestin-1 with peptide; format: binding, bovine; conditions: peptide:arrestin-1 up to 10:1
# Protocol: ^2H,^15N,^13C-labeled arrestin-1 aliquots were thawed quickly under running water, transferred to 30 kDa-cutoff Vivaspin (0.5 ml, Sartorius) centrifugal spin concentrators, and concentrated to approximately 600 μM. The concentrator was immediately transferred into a beaker filled with 400 ml of NMR buffer 1 or 2 (see below) carried by a floatation device. The dialysis was performed at 4 °C overnight. On the next day the concentration was determined by UV absorbance at 280 nm (molar extinction coefficient 26,360/mol/cm). […] The dialysis was performed at 4 °C overnight, and the peptide concentration was determined by its absorbance at 205 nm (molar extinction coefficient: 54,310/mol/cm). […]
# NMR measurements were performed on Bruker Avance III-HD 600 or 900 MHz spectrometer using a CTCI cryo-cooled probehead. […] Pulse lengths were calibrated for ^1H manually and for ^13C/^15N using an in-house automated procedure. pH was monitored using the position of the phosphate signal in NMR buffer 2 as an internal reference and varied by no more than 0.03 pH units during peptide titration experiments. [^15N,^1H]TROSY experiments were recorded with internal ETH pulse sequences, whereas 3D triple resonance TROSY experiments were recorded using the manufacturer’s pulse sequences. […]
# [2] = test system: arrestin-1 (F85A, F197A); assay: Limited trypsin digestion of arrestin-1 in presence of peptide; format: biochemical, bovine; conditions: arrestin:peptide 1:1.2, 35 °C, SDS PAGE
# Text: Synthesized cDNAs of bovine arrestin-1, human arrestin-2 and human arrestin-3 were ordered from Genewiz, amplified by PCR and cloned (Supplementary Information Table 5) into the pET-15b vector (Novagen), using the Gibson Assembly protocol. The constructs contained an N-terminal hexa histidine tag linked by a linker that contained a Tobacco Etch Virus cleavage site (TEV; […]). PCR was used to introduce the monomerizing arrestin-1 mutations (F85A, F197A)[58]. Note that this mutant was employed for fluorescence anisotropy, trypsin digestion, and NMR experiments. Wild-type arrestin-2 and -3 were used for fluorescence anisotropy and trypsin digestion experiments. […] The arrestin-1 in this construct had the wild-type sequence. Note that this construct differs slightly from that previously published[59],[60] and was optimized for purification. We verified the functionality of this fusion construct using the standard centrifugal pull-down assay using phosphorylated rhodopsin in native ROS membranes.
# Arrestin (60 µg) was mixed at a 1 to 1.2 molar ratio with peptide and preincubated at RT for 5 min before 1 μl of 0.15 mg/ml trypsin stock was added. The enzymatic digestion was carried out at 35 °C (20 mM Bis-Tris propane pH 7.0, 150 mM NaCl, 10 mM 2‑Mercaptoethanol and 2 mM EDTA). At certain time points (5, 15, 30, 60, 90 min), 5 μl aliquots were quenched with heat incubation in the presence of 20 μl SDS loading buffer (95 °C, 5 min) and then subjected to SDS PAGE. Bands were visualized with InstantBlue (Expedeon).
# [3] = target: fully phosphorylated peptide 7P of the bovine rhodopsin C-terminus (bovine); assay: fluorescence polarisation; fluorescence anisotropy; 20 nM fluorescently labelled peptide, 11-step serial dilution of arrestin; 20 mM Bis-Tris propane pH 7.0, 150 mM NaCl, 8 mM 2-mercaptoethanol, 2% BSA, 0.02% Tween-20; RT; one-to-one binding model
# [4] = target: bovine arrestin-1 with the monomerizing mutations F85A, F197A (bovine, UniProt P08168 2-404, F85A | F197A); assay: FP
molecule,measurement,setting,value
"CDDEASTTVSKTETSQVAPA [0P, nonphosphorylated peptide analog of the bovine rhodopsin C-terminus with N-terminal cysteine]",NMR chemical shift / peak changes in arrestin-1 (in words),[1],some minor changes in peak intensity
same,"limited trypsin digest pattern of arrestin-1 (conformational change, C-tail displacement)",[2],three major bands
"bovine arrestin-1 with the monomerizing mutations F85A, F197A (from UniProt P08168 2-404) (natural protein)",Kd,[3],< 250 µM
B1,Kd,[4],94 µM
